tested on: MCF-7 cells; assay: Concentration-dependent cellular uptake into MCF-7 cells at various pH, with and without Na+; type: cell-based, human; conditions: 1–200 μM, 30 min
Experimental: MCF-7 human breast adenocarcinoma cells (HTB-22) were purchased from the American Type Culture Collection (ATCC, Manassas, VA, USA). MCF-7 cells were cultured in Dulbecco’s modified Eagle’s medium supplemented with L-glutamine (2.0 mM), heat-inactivated fetal bovine serum (10%), and penicillin (50 U/mL)–streptomycin (50 μg/mL) solution. MCF-7 cells (passages 8–25) were seeded at the density of 1 × 10^5 cells/well onto 24-well plates. The cells were used for the uptake experiments 1 day after seeding. All the studies were carried out as three biological replicates from the same cell passage.
For the following experiments, the MCF-7 cells were cultured, seeded, washed with HBSS, and preincubated as described above at the desired conditions (pH 5.5, 7.4, or 8.5, with and without Na^+). […] Subsequently, the cells were washed three times with ice-cold HBSS and lysed with 500 μL of 0.1 M NaOH (60 min). […] The cell-associated concentrations of each compound normalized to protein concentration were calculated from the standard curve that was prepared by spiking known concentrations of compounds to ACN including the selected internal standard (diclofenac to all studied compounds). The protein concentrations on each plate were determined as a mean of three samples by Bio-Rad Protein Assay based on the Bradford dye-binding method using BSA as a standard protein and measuring the absorbance (595 nm) by a multiplate reader (EnVision, PerkinElmer, Inc., Waltham, MA, USA).

Structure (SMILES) | cellular uptake at pH 5.5 compared to pH 7.4 | cellular uptake at pH 8.5 compared to pH 7.4
CC(C(=O)Nc1cccc(C[C@H](N)C(=O)O)c1)c1cccc(C(=O)c2ccccc2)c1 (stereo partly drawn) [Compound 2] | did not affect | did not affect
CC(C(=O)NCC[C@H](N)C(=O)O)c1cccc(C(=O)c2ccccc2)c1 (stereo partly drawn) [Compound 6] |  | decreased
CC(C(=O)NCc1cccc(C[C@H](N)C(=O)O)c1)c1cccc(C(=O)c2ccccc2)c1 (stereo partly drawn) [Compound 4] |  | much higher
CCCN(CCC)S(=O)(=O)c1ccc(C(=O)O)cc1 [PRB, probenecid, reference compound] | increased | decreased
CC(C(=O)Nc1ccc(C[C@H](N)C(=O)O)cc1)c1cccc(C(=O)c2ccccc2)c1 (stereo partly drawn) [Compound 3] | higher | higher

same assay, conditions: 1–200 μM, 30 min, compared to presence of Na+

Structure (SMILES) | cellular uptake at pH 8.5 in the absence of Na+
CC(C(=O)Nc1cccc(C[C@H](N)C(=O)O)c1)c1cccc(C(=O)c2ccccc2)c1 (stereo partly drawn) [Compound 2] | did not affect
CC(C(=O)NCc1cccc(C[C@H](N)C(=O)O)c1)c1cccc(C(=O)c2ccccc2)c1 (stereo partly drawn) [Compound 4] | sodium-sensitive
CC(C(=O)Nc1ccc(C[C@H](N)C(=O)O)cc1)c1cccc(C(=O)c2ccccc2)c1 (stereo partly drawn) [Compound 3] | increased

same assay, conditions: pH 8.5, read-out: Km(uM)@pH8.5

Structure (SMILES) | Km [µM]
CC(C(=O)Nc1cccc(C[C@H](N)C(=O)O)c1)c1cccc(C(=O)c2ccccc2)c1 (stereo partly drawn) [Compound 2] | 291
CC(C(=O)NCC[C@H](N)C(=O)O)c1cccc(C(=O)c2ccccc2)c1 (stereo partly drawn) [Compound 6] | 422
CC(C(=O)NCc1cccc(C[C@H](N)C(=O)O)c1)c1cccc(C(=O)c2ccccc2)c1 (stereo partly drawn) [Compound 4] | 40
CC(C(=O)Nc1ccc(C[C@H](N)C(=O)O)cc1)c1cccc(C(=O)c2ccccc2)c1 (stereo partly drawn) [Compound 3] | 131

tested on: SNATs; assay: Competitive cellular uptake in the presence of unselective SNAT ligand MeAIB in MCF-7 cells; type: cell-based, human; conditions: 100 μM compound, 100 μM MeAIB, pH 7.4 or 8.5, 30 min
Experimental: The competitive uptake in the presence of unselective SNAT ligand, MeAIB (100 μM),[31],[32] was carried out as described above with HBSS buffer at pH 7.4 or pH 8.5 containing 100 μM of the studied compound. The cells were preincubated with the inhibitors for 10 min, and the incubation mixture was removed before adding the studied compound and the inhibitor to the cells. The competitive uptake (30 min) with the inhibitor was then carried out as the normal uptake described above. The concentrations of studied compounds were analyzed by the LC–MS/MS method and calculated from the spiked standard curve and normalized with the protein concentrations.

Structure (SMILES) | cellular uptake in the presence of MeAIB
CC(C(=O)Nc1cccc(C[C@H](N)C(=O)O)c1)c1cccc(C(=O)c2ccccc2)c1 (stereo partly drawn) [Compound 2] | did not affect
CC(C(=O)NCC[C@H](N)C(=O)O)c1cccc(C(=O)c2ccccc2)c1 (stereo partly drawn) [Compound 6] | decreased
CC(C(=O)NCc1cccc(C[C@H](N)C(=O)O)c1)c1cccc(C(=O)c2ccccc2)c1 (stereo partly drawn) [Compound 4] | decreased
CCCN(CCC)S(=O)(=O)c1ccc(C(=O)O)cc1 [PRB, probenecid, reference compound] | did not affect
CC(C(=O)Nc1ccc(C[C@H](N)C(=O)O)cc1)c1cccc(C(=O)c2ccccc2)c1 (stereo partly drawn) [Compound 3] | decreased

tested on: SNATs; assay: Functionality of SNATs in MCF-7 cells with [3H]-L-proline uptake; type: cell-based, human; conditions: MCF-7 cells, 10–600 μM, 60 min
Experimental: After removal of the culture medium, MCF-7 cells were carefully washed with prewarmed HBSS (Hank’s balanced salt solution) containing 125.0 mM NaCl (or choline chloride in Na^+-free conditions), 4.8 mM KCl, 1.2 mM MgSO4, 1.2 mM KH2PO4, 1.3 mM CaCl2, 5.6 mM glucose, and 25.0 mM 4-(2-hydroxyethyl)piperazine-1-ethanesulfonic acid (HEPES) with pH adjusted to either 7.4 or 8.5 with 1 M NaOH (or KOH in sodium-free conditions). In the experiments at lower pH (4.5–6.5), 25.0 mM HEPES was replaced by 2-(N-morpholino)ethanesulfonic acid (MES), and pH was adjusted to 4.5, 5.5, and 6.5 by 1.0 M NaOH. Preincubation was done with 500 μL of prewarmed HBSS at 37 °C for 10 min before adding substrates (250 μL in HBSS) for the uptake experiments. The functionality of SNATs in MCF-7 cells was studied with a known SNAT substrate; the cells were incubated either with [^3H]-L-proline [1 μM (PerkinElmer, Waltham, MA, USA) in uptake buffer HBSS, 250 μL] at 37 °C for 1–60 min or with the uptake buffer (250 μL) consisting of 1–600 μM L-proline (containing 2 μCi [^3H]-L-proline) at 37 °C for 60 min.[38] After incubation, the uptake was stopped by adding 500 μL of ice-cold HBSS, and the cells were washed two times with ice-cold HBSS (2 × 500 μL). The cells were then lysed with 500 μL of 0.1 M NaOH (60 min), and the lysate was mixed with 3.5 mL of Emulsifier safe cocktail (Ultima Gold, PerkinElmer, Waltham, MA, USA). The radioactivity in the cells was measured by liquid scintillation counting (MicroBeta^2 counter, PerkinElmer Waltham, MA, USA). The concentrations of [^3H]-L-proline were calculated from the spiked standard curve at each pH and normalized with the protein concentrations. The SNAT-mediated uptake was confirmed by changing the pH of the uptake buffer in the absence of sodium ions and in the presence of unselective SNAT-ligand, MeAIB (100 μM).[31],[32]

Structure (SMILES) | Km [µM] | Vmax of [^3H]-L-proline uptake [nmol/min/mg protein]
O=C(O)[C@@H]1CCCN1 [[^3H]-L-proline] | 1470 ± 257 | 1.13 ± 0.15

same assay, conditions: MCF-7 cells, pH 4.5–8.5 in the presence of Na+

Structure (SMILES) | pH dependency of uptake
O=C(O)[C@@H]1CCCN1 [[^3H]-L-proline] | significant pH dependency

same assay, conditions: MCF-7 cells, pH 7.4

Structure (SMILES) | uptake in the absence of sodium
O=C(O)[C@@H]1CCCN1 [[^3H]-L-proline] | significantly reduced

same assay, conditions: MeAIB 100 μM; [^3H]-L-proline 25 μM

Structure (SMILES) | inhibition of the uptake of [^3H]-L-proline
CNC(C)(C)C(=O)O [MeAIB, α-(methylamino)isobutyric acid] | negligible

same assay, conditions: MeAIB 100 μM; [^3H]-L-proline 50 and 100 μM

Structure (SMILES) | inhibition of the uptake of [^3H]-L-proline
CNC(C)(C)C(=O)O [MeAIB, α-(methylamino)isobutyric acid] | able to inhibit

tested on: LAT1; assay: not given; conditions: ability to compete with natural LAT1-substrate L-Leu; read-out: IC50 (μM) of [^14C]-L-Leu Uptake; cited from earlier work

Structure (SMILES) | IC50 [µM]
CC(C(=O)Nc1cccc(C[C@H](N)C(=O)O)c1)c1cccc(C(=O)c2ccccc2)c1 (stereo partly drawn) [Compound 2] | 0.54 ± 0.05
CC(C(=O)NCC[C@H](N)C(=O)O)c1cccc(C(=O)c2ccccc2)c1 (stereo partly drawn) [Compound 6] | 89.1 ± 4.19
CC(C(=O)NCc1cccc(C[C@H](N)C(=O)O)c1)c1cccc(C(=O)c2ccccc2)c1 (stereo partly drawn) [Compound 4] | 0.12 ± 0.01
CC(C(=O)Nc1ccc(C[C@H](N)C(=O)O)cc1)c1cccc(C(=O)c2ccccc2)c1 (stereo partly drawn) [Compound 3] | 51.16 ± 0.1

same assay, conditions: merged cell over IC50, CLint and Kp columns; cited from earlier work

Structure (SMILES) | LAT1 Properties (in words)
CNC(C)(C)C(=O)O [MeAIB, α-(methylamino)isobutyric acid] | Not an LAT1 substrate
CCCN(CCC)S(=O)(=O)c1ccc(C(=O)O)cc1 [PRB, probenecid, reference compound] | Not an LAT1 substrate

tested on: LAT1; assay: not given; design: unit not given here; conditions: CLint = Vmax/Km; cited from earlier work

Structure (SMILES) | Intrinsic Clearance (CLint) of LAT1-mediated uptake
CC(C(=O)Nc1cccc(C[C@H](N)C(=O)O)c1)c1cccc(C(=O)c2ccccc2)c1 (stereo partly drawn) [Compound 2] | 11.2
CC(C(=O)NCc1cccc(C[C@H](N)C(=O)O)c1)c1cccc(C(=O)c2ccccc2)c1 (stereo partly drawn) [Compound 4] | 4.5
CC(C(=O)Nc1ccc(C[C@H](N)C(=O)O)cc1)c1cccc(C(=O)c2ccccc2)c1 (stereo partly drawn) [Compound 3] | 8.3

tested on: not given; assay: not given; conditions: brain accumulation; cited from earlier work

Structure (SMILES) | in vivo Kp values (AUCbrain/ AUCplasma)
CC(C(=O)Nc1cccc(C[C@H](N)C(=O)O)c1)c1cccc(C(=O)c2ccccc2)c1 (stereo partly drawn) [Compound 2] | 0.045
CC(C(=O)NCC[C@H](N)C(=O)O)c1cccc(C(=O)c2ccccc2)c1 (stereo partly drawn) [Compound 6] | 0.317
CC(C(=O)NCc1cccc(C[C@H](N)C(=O)O)c1)c1cccc(C(=O)c2ccccc2)c1 (stereo partly drawn) [Compound 4] | 0.017
CC(C(=O)Nc1ccc(C[C@H](N)C(=O)O)cc1)c1cccc(C(=O)c2ccccc2)c1 (stereo partly drawn) [Compound 3] | 0.050
